# Counter-ions that a name gives are not always drawn.
# Legend:
# DPPIV = target: T1, DPPIV (Homo sapiens, UniProt P27487); assay: Selective activity determination of DPPIV inhibitors, recombinant enzyme, fluorescence substrate; format: biochemical
# T1 construct: made in house; host or cells: insect expression system
# Description: (§1) It can cut off the first two amino acids in many of the N-peptide to change or lose its biological activity. Gene knockout animal and human experiments indicate that reducing DPPIV activity effectively and specifically in vivo can improve blood insulin content and lower blood sugar levels, so as to improve the symptoms of diabetes effectively.
# (§2) By using the insect expression system, the recombinant proteins of DPPIV, DPP8, DPP9 and QPP had been obtained. The activities of the […] enzymes were detected by fluorescence Substrate. The inhibitory effects of compounds were evaluated by the effects of different compounds on inhibiting enzyme activities. Positive reference compound was LAF237.
# QPP = target: T2, QPP (Homo sapiens, UniProt Q9UHL4); assay: as above; format: biochemical; settings: recombinant protein from insect expression system
# T2 construct: made in house; host or cells: insect expression system
# Description: as §1, §2
# FAP = target: T3, FAP (Homo sapiens, UniProt Q12884); assay: Selective activity determination of DPPIV inhibitors, fluorescence substrate; format: biochemical
# T3 sequence (Q12884 1-760): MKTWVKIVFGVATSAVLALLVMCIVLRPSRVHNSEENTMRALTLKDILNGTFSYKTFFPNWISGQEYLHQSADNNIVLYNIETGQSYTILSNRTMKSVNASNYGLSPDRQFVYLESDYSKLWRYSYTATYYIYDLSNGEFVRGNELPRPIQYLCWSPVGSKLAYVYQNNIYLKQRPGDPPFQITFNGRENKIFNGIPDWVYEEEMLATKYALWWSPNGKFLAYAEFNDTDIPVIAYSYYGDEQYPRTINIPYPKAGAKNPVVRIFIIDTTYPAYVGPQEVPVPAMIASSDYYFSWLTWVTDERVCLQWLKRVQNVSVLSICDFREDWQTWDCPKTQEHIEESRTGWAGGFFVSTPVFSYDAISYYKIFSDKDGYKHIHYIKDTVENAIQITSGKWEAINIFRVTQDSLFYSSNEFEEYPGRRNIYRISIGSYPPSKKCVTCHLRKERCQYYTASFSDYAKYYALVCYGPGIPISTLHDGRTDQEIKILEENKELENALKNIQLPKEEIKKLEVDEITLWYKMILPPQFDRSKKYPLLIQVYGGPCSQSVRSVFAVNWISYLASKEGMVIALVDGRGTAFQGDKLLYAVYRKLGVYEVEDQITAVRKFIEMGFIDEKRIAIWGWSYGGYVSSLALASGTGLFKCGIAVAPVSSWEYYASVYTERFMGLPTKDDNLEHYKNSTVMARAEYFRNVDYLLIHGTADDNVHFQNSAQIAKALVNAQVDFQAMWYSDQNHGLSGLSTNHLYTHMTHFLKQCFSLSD
# Description: as §1, §2
# normal ICR mice = assay: Oral glucose tolerance test in normal ICR mice; format: in vivo; settings: male ICR mice, 30 minutes after 2.5 g/kg glucose
# Procedure: Normal male ICR mice were randomly grouped according to weights, 6 mice in each group. The groups included a blank control group as well as different doses of the treatment groups as follows:
# Animals in each group had been fasted for 6 hours, and then pretreated with compounds or double distilled water by gavage respectively in single administration. 30 minutes later, animals were administered 2.5 g/kg glucose by gavage. Before administration and after administration of glucose at 30, 60 and 120 minuets, blood was taken to determine serum glucose levels.
# Serum glucose is determined by glucose kit. 250 μl working enzyme solution was taken, and then 5 μl serum was added to the solution. A blank tube (5 μl double distilled water was added) and a standard tube (5 μl glucose standard solution was added) were established simultaneously, shaking respectively, and in 37° C. water bath for 20 minutes. The blank tube was tuned with, and then calorimetric assay was determined at OD505 nm. Serum glucose concentration (BG, mmol/l)=ODsample tube/ODstandard tube×5.55 Data Processing and Statistical Analysis: • 1. Mean±SD and Student-t test were used in data statistical analysis. • 2. The percentage of blood glucose decline in 30 minutes after sugar administration as well as the area under the curve (AUC) was calculated.
# [1] = test system: type II diabetes KKAy mice; assay: Oral glucose tolerance test in type II diabetes KKAy mice; format: in vivo
# Procedure: Normal KKAy mice had been fasted for 6 hours, and then were randomly grouped according to weights and fasting blood glucose, 5 mice in each group. The groups included a blank control group as well as different doses of the treatment groups as follows:
# 30 minutes later, animals were administered 2.5 g/kg (female KKAy mice) or 1.5 g/kg (male KKAy mice) glucose by gavage. After administration of glucose at 30, 60 and 120 minuets, serum glucose levels were determined by Glucometer.
# • 3. Mean±SD and Student-t test or Anova were used in data statistical analysis. • 4.
# [2] = Test 1, high dose (10 mg/kg by gavage)
# [3] = Test 1, low dose (1 mg/kg by gavage)
# [4] = Test 1, middle dose (3 mg/kg by gavage)
# [5] = Test 2, high dose (10 mg/kg by gavage)
# [6] = Test 2, low dose (1 mg/kg by gavage)
# [7] = Test 2, middle dose (3 mg/kg by gavage)
# [8] = female KKAy mice, 10 mg/kg by gavage, 30 minutes after 2.5 g/kg glucose
# [9] = male KKAy mice, 10 mg/kg by gavage, 30 minutes after 1.5 g/kg glucose
# [10] = male KKAy mice, 30 mg/kg by gavage, 30 minutes after 1.5 g/kg glucose
# T1 sequence (P27487 whole entry): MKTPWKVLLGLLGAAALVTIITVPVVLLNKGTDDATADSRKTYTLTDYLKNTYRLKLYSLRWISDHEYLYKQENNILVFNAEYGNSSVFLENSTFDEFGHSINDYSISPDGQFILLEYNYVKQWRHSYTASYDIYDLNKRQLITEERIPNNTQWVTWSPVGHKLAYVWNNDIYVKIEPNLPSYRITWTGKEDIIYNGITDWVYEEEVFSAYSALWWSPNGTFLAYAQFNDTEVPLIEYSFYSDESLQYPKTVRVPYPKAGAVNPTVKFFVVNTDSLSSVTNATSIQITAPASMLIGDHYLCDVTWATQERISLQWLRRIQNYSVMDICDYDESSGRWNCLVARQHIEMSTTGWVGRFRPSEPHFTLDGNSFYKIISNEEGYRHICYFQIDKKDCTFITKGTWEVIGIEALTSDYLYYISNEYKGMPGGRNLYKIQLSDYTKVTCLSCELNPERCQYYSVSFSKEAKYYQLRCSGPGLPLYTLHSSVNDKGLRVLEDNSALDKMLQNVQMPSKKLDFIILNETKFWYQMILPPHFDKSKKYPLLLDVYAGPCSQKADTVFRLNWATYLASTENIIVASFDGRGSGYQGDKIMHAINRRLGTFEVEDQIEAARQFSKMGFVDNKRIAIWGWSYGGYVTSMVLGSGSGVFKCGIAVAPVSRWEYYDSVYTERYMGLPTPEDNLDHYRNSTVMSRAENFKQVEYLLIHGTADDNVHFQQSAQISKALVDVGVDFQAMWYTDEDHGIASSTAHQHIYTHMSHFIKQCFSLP
SMILES,IC50 (DPPIV) [nM],IC50 (QPP) [µM],IC50 (FAP) [nM],percentage of blood glucose decreased vs control group (normal ICR mice; [2]) [%],percentage of blood glucose decreased vs control group (normal ICR mice; [3]) [%],percentage of blood glucose decreased vs control group (normal ICR mice; [4]) [%],percentage of blood glucose decreased vs control group (normal ICR mice; [5]) [%],percentage of blood glucose decreased vs control group (normal ICR mice; [6]) [%],percentage of blood glucose decreased vs control group (normal ICR mice; [7]) [%],"percentage of blood glucose decreased vs control group [1, 8] [%]","percentage of blood glucose decreased vs control group [1, 9] [%]","percentage of blood glucose decreased vs control group [1, 10] [%]","percentage of blood glucose decreased vs control group ([1]; female KKAy mice, 3 mg/kg by gavage, 30 minutes after 2.5 g/kg glucose) [%]"
"COC(=O)N1C[C@H]2C[C@@H](NCC(=O)N3CCC[C@H]3C#N)C[C@H]2C1 (relative stereo) [Example 2, cis-5-[2-(2-Cyano-pyrrolidin-1-yl)-2-oxo-ethylamino]-hexahydro-cyclopenta[c]pyrrole-2-carboxylic acid methyl ester hydrochloride]",98 ± 36.4,> 56,476 ± 112,26.93,25.54,25.92,27.75,24.51,26.96,21.55,13.79,12.23,–
"CN(C)C(=O)N1C[C@H]2C[C@@H](NCC(=O)N3CCC[C@H]3C#N)C[C@H]2C1 (relative stereo) [Example 1, cis-5-[2-(2-Cyano-pyrrolidin-1-yl)-2-oxo-ethylamino]-hexahydro-cyclopenta[c]pyrrole-2-carboxylic acid dimethylamide hydrochloride]",–,–,–,31.85,19.16,22.85,32.05,26.10,30.24,24.68,16.22,17.15,40.63

# Source: patent US8178575B2, “Derivatives of azabicyclo octane, the method of making them and the uses thereof as inhibitors of dipeptidyl peptidase IV” (Shanghai Hengrui Pharmaceutical Co., Ltd., priority 2007, dated 2012)
